According to patent publication US8501794B2, “Compounds as cannabinoid receptor ligands” (priority 2007, dated 2013):

What was measured:
human CB2 receptors = target: T1, human CB2 receptors (Homo sapiens, UniProt P34972); experiment: human CB2 radioligand binding assay ([3H]CP-55,940 competition)
T1 construct: expressed in transfected cells; host or cells: HEK293

rat CB2 [1] = target: T2, rat CB2 (Rattus norvegicus, UniProt Q9QZN9); experiment: rat CB2 radioligand binding assay ([3H]CP-55,940 competition); parameters: expressed in transfected cells; host or cells: HEK293
T2 sequence (Q9QZN9 1-360): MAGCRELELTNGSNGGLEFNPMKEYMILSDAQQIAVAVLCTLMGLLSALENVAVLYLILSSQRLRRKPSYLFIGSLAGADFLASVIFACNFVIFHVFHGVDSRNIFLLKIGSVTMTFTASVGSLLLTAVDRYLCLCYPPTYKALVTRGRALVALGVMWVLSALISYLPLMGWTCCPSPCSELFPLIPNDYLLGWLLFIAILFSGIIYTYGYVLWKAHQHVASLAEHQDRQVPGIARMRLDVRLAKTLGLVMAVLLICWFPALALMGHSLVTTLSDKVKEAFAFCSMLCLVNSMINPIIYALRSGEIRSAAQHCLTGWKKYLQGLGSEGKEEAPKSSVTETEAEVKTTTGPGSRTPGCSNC

rat CB2 [2] = target: T2, rat CB2; experiment: rat CB2 cyclase functional assay (HitHunter cAMP, HEK cells); type: cell-based; parameters: expressed in transfected cells; host or cells: HEK; settings: forskolin 18 μM

T1 sequence (P34972 whole entry): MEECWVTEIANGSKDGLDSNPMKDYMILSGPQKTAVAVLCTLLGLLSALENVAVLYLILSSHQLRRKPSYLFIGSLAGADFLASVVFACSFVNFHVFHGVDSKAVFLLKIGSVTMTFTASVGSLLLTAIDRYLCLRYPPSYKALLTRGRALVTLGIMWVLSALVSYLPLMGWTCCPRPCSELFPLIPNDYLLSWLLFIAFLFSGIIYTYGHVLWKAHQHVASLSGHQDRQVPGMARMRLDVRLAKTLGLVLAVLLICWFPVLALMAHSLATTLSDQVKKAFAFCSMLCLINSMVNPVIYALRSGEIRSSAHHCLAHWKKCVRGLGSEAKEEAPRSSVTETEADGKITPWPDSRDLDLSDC

Compound | Ki (human CB2 receptors) | Ki (rat CB2 [1]) | EC50 (rat CB2 [2])
CCCCc1cn(C(C)(C)C)s/c1=N\C(=O)[C@H]1CC[C@@](C)(C(=O)OC)C1(C)C [Example 170, Methyl (1R,3S)-3-({[(5Z)-4-butyl-2-tert-butylisothiazol-5(2H)-ylidene]amino}carbonyl)-1,2,2-trimethylcyclopentanecarboxylate] | 1.4 nM | 1.7 nM | 0.043 nM
COc1ccc(C(F)(F)F)cc1C(=O)/N=c1\sn(C(C)(C)C)cc1CCCC#N [Example 134, N-[(5Z)-2-tert-butyl-4-(3-cyanopropyl)isothiazol-5(2H)-ylidene]-2-methoxy-5-(trifluoromethyl)benzamide] | 18 nM | 1.1 nM | 1.6 nM
CCCCc1cn(C(C)(C)C)s/c1=N\C(=O)C1(c2ccccc2)CCCCC1 [Example 94, N-[(5Z)-4-butyl-2-tert-butylisothiazol-5(2H)-ylidene]-1-phenylcyclohexanecarboxamide] | 4.8 nM | 1.1 nM | 0.25 nM
CCCCc1cn(C(C)(C)C)s/c1=N\C(=O)[C@@]1(C)CC[C@@H](C(=O)NC)C1(C)C [Example 218, (1S,3R)—N^1-[(5Z)-4-butyl-2-tert-butylisothiazol-5(2H)-ylidene]-N^3,1,2,2-tetramethylcyclopentane-1,3-dicarboxamide] | 53 nM | 29 nM | 1.1 nM
CCCCc1cn(C(C)(C)C)s/c1=N\C(=O)c1cc(C(F)(F)F)ccc1OCC1CCCCN1C (stereo not drawn) [Example 196, N-[(5Z)-4-butyl-2-tert-butylisothiazol-5(2H)-ylidene]-2-[(1-methylpiperidin-2-yl)methoxy]-5-(trifluoromethyl)benzamide] | 18 nM | 28.8 nM | 2.4 nM
CCCCc1cn(C(C)(C)CF)s/c1=N\C(=O)c1cc(Cl)ccc1OC [Example 154, N-[(5Z)-4-butyl-2-(2-fluoro-1,1-dimethylethyl)isothiazol-5(2H)-ylidene]-5-chloro-2-methoxybenzamide] | 5.7 nM | 0.32 nM | 0.065 nM
CCCCc1cn(C(C)(C)C)s/c1=N\C(=O)C1(C)CCC(C(=O)OC)C1(C)C (racemic) [Example 92, Methyl 3-({[(5Z)-4-butyl-2-tert-butylisothiazol-5(2H)-ylidene]amino}carbonyl)-2,2,3-trimethylcyclopentanecarboxylate] | 0.2 nM | 0.25 nM | 0.45 nM
CCCCc1cn(C(C)(C)C)s/c1=N\C(=O)C1CCC(C)(C(=O)O)C1(C)C (stereo not drawn) [Example 105, 3-({[(5Z)-4-butyl-2-tert-butylisothiazol-5(2H)-ylidene]amino}carbonyl)-1,2,2-trimethylcyclopentanecarboxylic acid] | 19 nM | 17 nM | 0.11 nM
CCCCc1cn(C(C)(C)C)s/c1=N\C(=O)[C@H]1CC[C@@](C)(C(N)=O)C1(C)C [Example 171, (1R,3S)—N^3-[(5Z)-4-butyl-2-tert-butylisothiazol-5(2H)-ylidene]-1,2,2-trimethylcyclopentane-1,3-dicarboxamide] | 9 nM | 5.8 nM | 0.19 nM
CCCCCc1cn(C(C)(C)C)s/c1=N\C(=O)c1cc(Cl)ccc1OC [Example 147, N-[(5Z)-2-tert-butyl-4-pentylisothiazol-5(2H)-ylidene]-5-chloro-2-methoxybenzamide] | 1.6 nM | 0.15 nM | 0.062 nM
CCCCc1cn(C(C)(C)C)s/c1=N\C(=O)[C@@]1(C)CC[C@@H](C(=O)O)C1(C)C [Example 174, (1R,3S)-3-({[(5Z)-4-butyl-2-tert-butylisothiazol-5(2H)-ylidene]amino}carbonyl)-2,2,3-trimethylcyclopentanecarboxylic acid] | 62 nM | 33 nM | 3.4 nM
CCCCc1cn(C(C)(C)C)s/c1=N\C(=O)[C@@]1(C)CC[C@@H](C(=O)N2CCC2)C1(C)C [Example 222, (1S,3R)-3-(azetidin-1-ylcarbonyl)-N-[(5Z)-4-butyl-2-tert-butylisothiazol-5(2H)-ylidene]-1,2,2-trimethylcyclopentanecarboxamide] | 170 nM | 70 nM | 5.7 nM
COc1ccc(Cl)cc1C(=O)/N=c1\sn(C(C)(C)C)cc1CC1CC(C)=NO1 (stereo not drawn) [Example 7] | 370 nM | 8.8 nM | 2.7 nM
CCCCc1cn(C(C)(C)C)s/c1=N\C(=NC#N)c1cc(C(F)(F)F)ccc1OC [Example 124, N-[(5Z)-4-butyl-2-tert-butylisothiazol-5(2H)-ylidene]-N′-cyano-2-methoxy-5-(trifluoromethyl)benzenecarboximidamide] | 3 nM | 2.3 nM | 0.027 nM
CCCCc1cn(C(C)(C)C)s/c1=N\C(=O)c1cc(C(=O)OC)ccc1OC [Example 74, Methyl 3-({[(5Z)-4-butyl-2-tert-butylisothiazol-5(2H)-ylidene]amino}carbonyl)-4-methoxybenzoate] | 27 nM | 2.5 nM | 0.095 nM
CCCCc1cn(C(C)(C)C)s/c1=N\C(=NC#N)c1cc(Cl)ccc1OC [Example 110, N-[(5Z)-4-butyl-2-tert-butylisothiazol-5(2H)-ylidene]-5-chloro-N′-cyano-2-methoxybenzenecarboximidamide] | 3 nM | 1.6 nM | 0.12 nM
CCCCc1cn(C(C)(C)C)s/c1=N\C(=O)c1cc(C(F)(F)F)ccc1OC [Example 127, N-[(5Z)-4-butyl-2-tert-butylisothiazol-5(2H)-ylidene]-2-methoxy-5-(trifluoromethyl)benzamide] | 3.7 nM | 0.43 nM | 0.16 nM
CCCCc1cn(C(C)(C)C)s/c1=N\C(=O)c1cc(C(F)(F)F)ccc1OC[C@@H]1CCCN1C [Example 192, N-[(5Z)-4-butyl-2-tert-butylisothiazol-5(2H)-ylidene]-2-{[(2S)-1-methylpyrrolidin-2-yl]methoxy}-5-(trifluoromethyl)benzamide] | 46 nM | 18 nM | 3.4 nM
CCCCc1cn(C(C)(C)C)s/c1=N\C(=NC#N)c1cc(C(F)(F)F)ccc1OCC [Example 126, N-[(5Z)-4-butyl-2-tert-butylisothiazol-5(2H)-ylidene]-N′-cyano-2-ethoxy-5-(trifluoromethyl)benzenecarboximidamide] | 0.6 nM | 1.2 nM | 0.076 nM
CCCCc1cn(C(C)(C)C)s/c1=N\C(=O)c1cc(/C(C)=N\O)ccc1OC [Example 68, N-[(5Z)-4-butyl-2-tert-butylisothiazol-5(2H)-ylidene]-5-[(1Z)-N-hydroxyethanimidoy1]-2-methoxybenzamide] | 59 nM | 8.3 nM | 0.022 nM
COc1ccc(Cl)cc1C(=O)/N=c1\sn(C(C)(C)C)cc1COCC(F)(F)F [Example 85, N-[(5Z)-2-tert-butyl-4-[(2,2,2-trifluoroethoxy)methyl]isothiazol-5(2H)-ylidene]-5-chloro-2-methoxybenzamide] | 17 nM | 3.5 nM | 0.42 nM
COc1ccc(C(F)(F)F)cc1C(=O)/N=c1\sn(C(C)(C)C)cc1CCCCF [Example 149, N-[(5Z)-2-tert-butyl-4-(4-fluorobutyl)isothiazol-5(2H)-ylidene]-2-methoxy-5-(trifluoromethyl)benzamide] | 8.3 nM | 0.15 nM | 0.23 nM
